Laboratory results as given in PubChem BioAssay (NCI).
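Following 48 hours of exposure in 96-well plates, responses at five concentrations were used to interpolate endpoints linearly. TGI denotes the concentration required for complete inhibition of growth.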

How the values were obtained:
Assay in all cases: NCI-60 cell line screen, 48 h
DU-145 prostate = tested on: DU-145 prostate
M14 melanoma = tested on: M14 melanoma
COLO 205 colon = tested on: COLO 205 colon
SNB-75 CNS = tested on: SNB-75 CNS
SK-OV-3 ovarian = tested on: SK-OV-3 ovarian
ACHN renal = tested on: ACHN renal
SNB-19 CNS = tested on: SNB-19 CNS
MALME-3M melanoma = tested on: MALME-3M melanoma
SR leukemia = tested on: SR leukemia
EKVX NSCLC = tested on: EKVX NSCLC
SK-MEL-5 melanoma = tested on: SK-MEL-5 melanoma
TK-10 renal = tested on: TK-10 renal
OVCAR-4 ovarian = tested on: OVCAR-4 ovarian
HCT-15 colon = tested on: HCT-15 colon
SK-MEL-2 melanoma = tested on: SK-MEL-2 melanoma
U251 CNS = tested on: U251 CNS
SF-268 CNS = tested on: SF-268 CNS
HCC-2998 colon = tested on: HCC-2998 colon
IGROV1 ovarian = tested on: IGROV1 ovarian
UO-31 renal = tested on: UO-31 renal
NCI/ADR-RES ovarian = tested on: NCI/ADR-RES ovarian
UACC-62 melanoma = tested on: UACC-62 melanoma
NCI-H460 lung = tested on: NCI-H460 lung
SF-295 CNS = tested on: SF-295 CNS
786-0 renal = tested on: 786-0 renal
RPMI-8226 leukemia = tested on: RPMI-8226 leukemia
T-47D breast = tested on: T-47D breast
LOX IMVI melanoma = tested on: LOX IMVI melanoma
A498 renal = tested on: A498 renal
RXF 393 renal = tested on: RXF 393 renal
UACC-257 melanoma = tested on: UACC-257 melanoma
MDA-MB-435 = tested on: MDA-MB-435
NCI-H226 lung = tested on: NCI-H226 lung
HS 578T breast = tested on: HS 578T breast
MOLT-4 leukemia = tested on: MOLT-4 leukemia
KM12 colon = tested on: KM12 colon
HT29 colon = tested on: HT29 colon
HOP-92 NSCLC = tested on: HOP-92 NSCLC
MDA-N = tested on: MDA-N
SW-620 colon = tested on: SW-620 colon
PC-3 prostate = tested on: PC-3 prostate
OVCAR-8 ovarian = tested on: OVCAR-8 ovarian
SF-539 CNS = tested on: SF-539 CNS
SK-MEL-28 melanoma = tested on: SK-MEL-28 melanoma
NCI-H522 lung = tested on: NCI-H522 lung
OVCAR-5 ovarian = tested on: OVCAR-5 ovarian
SN12C renal = tested on: SN12C renal
HCT-116 colon = tested on: HCT-116 colon
A549 NSCLC = tested on: A549 NSCLC
MDA-MB-231 breast = tested on: MDA-MB-231 breast
HOP-62 NSCLC = tested on: HOP-62 NSCLC
CAKI-1 renal = tested on: CAKI-1 renal
NCI-H23 lung = tested on: NCI-H23 lung
OVCAR-3 ovarian = tested on: OVCAR-3 ovarian
CCRF-CEM leukemia = tested on: CCRF-CEM leukemia
K-562 leukemia = tested on: K-562 leukemia
HL-60(TB) leukemia = tested on: HL-60(TB) leukemia
MCF7 breast = tested on: MCF7 breast
BT-549 breast = tested on: BT-549 breast

Measured: TGI

NC(N)=NCCN1CC2CCC(CC2)C1
98.7 µM: SNB-75 CNS
not listed: CCRF-CEM leukemia | K-562 leukemia | HL-60(TB) leukemia | MCF7 breast | BT-549 breast
> 100 µM: all other assays above

O=C1/C(=C/c2ccc(Br)s2)NC(=S)N1c1ccccc1
71.6 µM: HOP-92 NSCLC
85.1 µM: RPMI-8226 leukemia
not listed: M14 melanoma | SNB-75 CNS | NCI/ADR-RES ovarian | T-47D breast | OVCAR-8 ovarian | SF-539 CNS | A549 NSCLC
> 100 µM: all other assays above
